Measured values from paper PMC8780828 (Viruses, 2021).
Read-outs that look alike come from different tables or passages of the source.

Experiments:
CYP3A [1] = target: T1, CYP3A (Homo sapiens, UniProt P08684); details: n=1
CYP2B6 [2] = target: T2, CYP2B6 (Homo sapiens, UniProt P20813); assay: biochemical
CYP2C8 [3] = target: T3, CYP2C8 (Homo sapiens, UniProt P10632); assay: in vitro; details: microsomes, pH 7.4
[4] = tested on: pseudovirus NL4-3ΔEnv-NanoLuc/SARS-CoV; assay: microbe, parasite or virus in culture; type: cell-based; details: Severe acute respiratory syndrome coronavirus, A549-ACE2; n=3; read-out: IC50
CYP2C8 [5] = target: T3, CYP2C8; assay: biochemical
in vivo = details: female, Sprague Dawley, rat; for MRT inf: MRT0-inf_obs; for half-life: t1/2
[6] = tested on: control pseudovirus NL4-3.Luc.R-E-/A-MLV; assay: Control pseudovirus A-MLV assay in 293T/ACE2 cells; type: cell-based, amphotropic murine leukemia virus (A-MLV); details: NL43, 293T/ACE2
CYP1A2 [7] = target: T4, CYP1A2 (Homo sapiens, UniProt P05177); assay: biochemical
[8] = tested on: pseudovirus NL4-3ΔEnv-NanoLuc/MERS-CoV; assay: microbe, parasite or virus in culture; type: cell-based; details: Middle East respiratory syndrome-related coronavirus, Huh-7; n=3; read-out: IC50
[9] = tested on: pseudovirus NL4-3ΔEnv-NanoLuc/SARS-CoV-2; assay: organism not typed; type: cell-based; details: A549-ACE2; n=3
CYP1A2 [10] = target: T4, CYP1A2; assay: in vitro; details: microsomes, pH 7.4
[11] = tested on: pseudovirus NL4-3ΔEnv-NanoLuc/SARS-CoV-2; assay: organism not typed; type: cell-based; details: HT-1080; n=3
CYP2C9 = CYP2C9 (Homo sapiens, UniProt P11712); assay: in vitro; details: microsomes, pH 7.4
[12] = tested on: SARS-CoV-2 (US_WA-1/2020); type: cell-based
[13] = rat, in vivo
pseudovirus SARS-CoV-2 = assay: organism not typed; type: cell-based
[14] = tested on: pseudovirus NL4-3ΔEnv-NanoLuc/MERS-CoV; assay: microbe, parasite or virus in culture; type: cell-based; details: Middle East respiratory syndrome-related coronavirus, MRC5; n=3; read-out: IC50
[15] = tested on: pseudovirus NL4-3ΔEnv-NanoLuc/SARS-CoV; assay: microbe, parasite or virus in culture; type: cell-based; details: Severe acute respiratory syndrome coronavirus, HT-1080; n=3; read-out: IC50
CYP2B6 [16] = target: T2, CYP2B6; assay: in vitro; details: microsomes, pH 7.4
CYP3A [17] = target: T1, CYP3A; assay: in vitro; details: microsomes
CYP2C19 = CYP2C19 (Homo sapiens, UniProt P33261); assay: in vitro; details: microsomes, pH 7.4
in vitro = details: both, human, microsomes, pH 7.4
[18] = tested on: pseudovirus NL4-3ΔEnv-NanoLuc/SARS-CoV-2; assay: SARS-CoV-2 pseudovirus assay with pre-treated 293T/ACE2 cells; type: cell-based; details: 293T/ACE2 cells pre-treated with compound 30 min before infection
[19] = tested on: NL4-3ΔEnv-NanoLuc/SARS-CoV-2; assay: organism not typed; type: cell-based
[20] = target: malate dehydrogenase (MDH); type: biochemical
[21] = female, Sprague Dawley, iv, 5 mg/kg

T1 sequence (P08684 2-503): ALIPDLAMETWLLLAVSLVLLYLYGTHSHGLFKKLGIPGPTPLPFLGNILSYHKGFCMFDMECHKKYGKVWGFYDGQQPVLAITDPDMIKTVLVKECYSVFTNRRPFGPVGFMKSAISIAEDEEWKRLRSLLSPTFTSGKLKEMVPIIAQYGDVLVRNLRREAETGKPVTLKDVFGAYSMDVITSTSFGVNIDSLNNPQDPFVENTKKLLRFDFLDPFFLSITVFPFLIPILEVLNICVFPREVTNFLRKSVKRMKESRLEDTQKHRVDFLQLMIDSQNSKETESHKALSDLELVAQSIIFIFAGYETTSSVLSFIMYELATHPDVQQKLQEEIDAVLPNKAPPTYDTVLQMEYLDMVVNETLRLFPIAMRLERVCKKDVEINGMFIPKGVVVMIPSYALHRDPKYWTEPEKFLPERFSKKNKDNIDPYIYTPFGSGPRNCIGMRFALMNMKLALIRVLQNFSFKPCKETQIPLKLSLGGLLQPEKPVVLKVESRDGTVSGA
Chain of CYP2C9 (P11712 whole entry): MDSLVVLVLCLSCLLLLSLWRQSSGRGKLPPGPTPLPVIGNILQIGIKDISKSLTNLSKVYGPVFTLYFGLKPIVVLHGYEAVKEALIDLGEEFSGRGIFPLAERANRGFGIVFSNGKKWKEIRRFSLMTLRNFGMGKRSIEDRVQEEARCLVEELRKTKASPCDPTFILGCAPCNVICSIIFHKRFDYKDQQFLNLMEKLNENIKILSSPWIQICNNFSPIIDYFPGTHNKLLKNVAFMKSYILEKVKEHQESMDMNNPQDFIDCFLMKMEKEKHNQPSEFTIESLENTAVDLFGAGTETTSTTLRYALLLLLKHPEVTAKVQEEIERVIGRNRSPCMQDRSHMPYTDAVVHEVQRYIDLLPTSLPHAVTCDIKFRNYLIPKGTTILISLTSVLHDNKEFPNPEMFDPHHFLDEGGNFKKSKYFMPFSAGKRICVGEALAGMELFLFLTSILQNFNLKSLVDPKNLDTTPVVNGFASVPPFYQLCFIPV
T4 sequence (P05177 whole entry): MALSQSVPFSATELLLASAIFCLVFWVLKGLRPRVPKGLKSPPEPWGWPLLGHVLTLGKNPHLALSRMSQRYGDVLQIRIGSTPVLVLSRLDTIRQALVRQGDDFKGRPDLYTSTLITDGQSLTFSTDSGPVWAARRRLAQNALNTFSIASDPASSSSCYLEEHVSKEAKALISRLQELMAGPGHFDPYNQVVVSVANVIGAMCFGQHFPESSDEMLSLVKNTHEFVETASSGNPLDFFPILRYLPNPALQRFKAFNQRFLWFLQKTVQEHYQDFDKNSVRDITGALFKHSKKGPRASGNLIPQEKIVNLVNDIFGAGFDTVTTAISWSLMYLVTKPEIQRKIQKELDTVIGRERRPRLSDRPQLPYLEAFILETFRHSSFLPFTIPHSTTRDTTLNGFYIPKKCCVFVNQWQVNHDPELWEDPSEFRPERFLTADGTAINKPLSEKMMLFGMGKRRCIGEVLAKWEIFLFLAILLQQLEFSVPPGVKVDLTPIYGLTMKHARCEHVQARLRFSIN
T3 sequence (P10632 whole entry): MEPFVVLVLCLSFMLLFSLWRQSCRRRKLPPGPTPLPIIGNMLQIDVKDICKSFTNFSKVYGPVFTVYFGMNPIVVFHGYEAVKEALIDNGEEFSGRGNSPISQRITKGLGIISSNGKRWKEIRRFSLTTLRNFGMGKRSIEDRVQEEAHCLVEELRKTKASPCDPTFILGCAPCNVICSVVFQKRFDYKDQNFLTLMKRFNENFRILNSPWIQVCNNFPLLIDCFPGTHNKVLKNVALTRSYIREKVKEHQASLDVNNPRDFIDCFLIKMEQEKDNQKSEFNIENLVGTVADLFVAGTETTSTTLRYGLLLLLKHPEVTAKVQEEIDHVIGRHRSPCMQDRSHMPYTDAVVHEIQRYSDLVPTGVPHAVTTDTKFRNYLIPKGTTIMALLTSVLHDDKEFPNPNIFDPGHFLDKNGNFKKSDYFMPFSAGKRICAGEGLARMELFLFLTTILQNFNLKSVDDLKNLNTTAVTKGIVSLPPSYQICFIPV
Chain of CYP2C19 (P33261 whole entry): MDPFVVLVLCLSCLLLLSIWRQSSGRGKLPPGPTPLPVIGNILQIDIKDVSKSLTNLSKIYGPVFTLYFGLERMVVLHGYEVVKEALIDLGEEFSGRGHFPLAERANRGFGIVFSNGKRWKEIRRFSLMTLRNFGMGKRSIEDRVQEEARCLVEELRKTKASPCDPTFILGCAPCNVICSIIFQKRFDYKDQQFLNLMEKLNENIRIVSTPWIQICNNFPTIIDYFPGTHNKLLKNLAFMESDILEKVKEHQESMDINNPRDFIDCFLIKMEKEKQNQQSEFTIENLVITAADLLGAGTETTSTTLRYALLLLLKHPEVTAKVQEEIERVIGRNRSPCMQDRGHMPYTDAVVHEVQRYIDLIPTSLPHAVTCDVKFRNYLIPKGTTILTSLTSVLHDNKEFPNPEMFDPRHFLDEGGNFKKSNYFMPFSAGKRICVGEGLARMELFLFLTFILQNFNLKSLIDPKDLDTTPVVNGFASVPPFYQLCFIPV
T2 sequence (P20813 whole entry): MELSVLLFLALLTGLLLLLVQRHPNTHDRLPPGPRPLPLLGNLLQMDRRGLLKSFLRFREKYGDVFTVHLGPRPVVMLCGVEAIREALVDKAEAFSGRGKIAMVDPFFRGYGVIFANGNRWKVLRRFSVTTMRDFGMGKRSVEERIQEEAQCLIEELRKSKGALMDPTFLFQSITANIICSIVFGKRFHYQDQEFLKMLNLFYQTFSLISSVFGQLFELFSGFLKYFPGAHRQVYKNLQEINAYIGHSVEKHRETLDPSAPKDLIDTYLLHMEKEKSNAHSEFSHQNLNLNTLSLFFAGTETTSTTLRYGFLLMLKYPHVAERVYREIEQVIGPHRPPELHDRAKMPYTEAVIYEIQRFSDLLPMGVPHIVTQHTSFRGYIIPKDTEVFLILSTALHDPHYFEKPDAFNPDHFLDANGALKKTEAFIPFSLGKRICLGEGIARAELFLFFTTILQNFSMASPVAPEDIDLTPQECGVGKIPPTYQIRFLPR

O=C(O)c1cc(-c2ccc(/C=C3\SC(=S)N(CCc4ccccc4)C3=O)o2)ccc1Cl [NBCoV1]
% of Control Enzyme Activity (CYP3A [1]; 0.0137 μM): 96.6% | % of Control Enzyme Activity (CYP3A [1]; 0.0412 μM): 97.0% | % of Control Enzyme Activity (CYP3A [1]; 0.123 μM): 94.8% | % of Control Enzyme Activity (CYP3A [1]; 0.370 μM, 0.37 µM): 96.3% | % of Control Enzyme Activity (CYP3A [1]; 1.11 μM): 94.6% | % of Control Enzyme Activity (CYP3A [1]; 3.33 μM): 82.2% | % of Control Enzyme Activity (CYP3A [1]; 10 μM): 59.9% | IC50 (CYP2B6 [2]): 3190 nM | activity at 0.0137 µM (CYP2C8 [3]): 102% | activity at 0.0412 µM (CYP2C8 [3]): 89% | activity at 0.123 µM (CYP2C8 [3]): 98.3% | activity at 1.11 µM (CYP2C8 [3]): 76.9% | activity at 3.33 µM (CYP2C8 [3]): 25.3% | activity at 10 µM (CYP2C8 [3]): 3.87% | IC50 [4]: 98 ± 4 nM | IC50 (CYP2C8 [5]): 2080 nM | bioavailability (in vivo; F% (bioavailability)): 20% | C0 (in vivo; iv, 5 mg/kg): 7410 ng/mL | Tmax (in vivo; iv, 5 mg/kg): 0.25 h | Cmax (in vivo; iv, 5 mg/kg): 7820 ng/mL | MRT inf (in vivo; iv, 5 mg/kg): 4.02 h | half-life (in vivo; iv, 5 mg/kg): 3.57 h | Tmax (in vivo; po, 10 mg/kg): 2 h | Cmax (in vivo; po, 10 mg/kg): 1500 ng/mL | MRT inf (in vivo; po, 10 mg/kg): 14 h | half-life (in vivo; po, 10 mg/kg): 11.3 h | IC50 [6]: 1397 ± 12 nM | IC50 (CYP1A2 [7]): 7400 nM | IC50 [8]: 95 ± 22 nM | IC50 [9]: 63.6 ± 4.6 nM | activity at 0.0137 µM (CYP1A2 [10]): 99.2% | activity at 0.0412 µM (CYP1A2 [10]): 96.7% | activity at 0.123 µM (CYP1A2 [10]): 93.8% | activity at 0.37 µM (CYP1A2 [10]): 92.2% | activity at 1.11 µM (CYP1A2 [10]): 89.8% | activity at 3.33 µM (CYP1A2 [10]): 69.5% | activity at 10 µM (CYP1A2 [10]): 41.3% | IC50 [11]: 32.3 ± 4.6 nM | activity at 0.0137 µM (CYP2C9): 99.4% | activity at 0.0412 µM (CYP2C9): 98.2% | activity at 0.123 µM (CYP2C9): 97.2% | activity at 0.37 µM (CYP2C9): 95.1% | activity at 1.11 µM (CYP2C9): 85.1% | activity at 3.33 µM (CYP2C9): 59.9% | activity at 10 µM (CYP2C9): 29.8% | Caco-2 permeability (mean Papp) A-to-B (Caco-2 cells; 5 µM): 20.5 ×10⁻⁶ cm/s | Caco-2 permeability (mean Papp) B-to-A (Caco-2 cells; 5 µM): 23.6 ×10⁻⁶ cm/s | P-gp Substrate classification (Caco-2 cells; Caco-2): Negative | IC100 [12]: > 10 µM | F% (bioavailability) ([13]; female, Sprague Dawley): 20.1% | CLobs [13, 21]: 0.00013 (mg/kg)/(ng/mL)/h | Vss_obs [13, 21]: 0.00053 (mg/kg)/(ng/mL) | AUC0-t ([13]; iv, 5 mg/kg): 37,515.91 ng/mL ∗ h | AUC0-t ([13]; po, 10 mg/kg): 12,023.00 ng/mL ∗ h | Vz/F_obs ([13]; po, 10 mg/kg): 0.01078 (mg/kg)/(ng/mL) | IC50 (pseudovirus SARS-CoV-2; 293T/ACE2): 50 nM | IC50 (pseudovirus SARS-CoV-2; read-out: IC50): 45 nM | IC50 [14]: 76.5 ± 0.3 nM | IC50 [15]: 39 ± 8.2 nM | activity at 0.0137 µM (CYP2B6 [16]): 97.5% | activity at 0.0412 µM (CYP2B6 [16]): 98.1% | activity at 0.123 µM (CYP2B6 [16]): 90.4% | activity at 0.37 µM (CYP2B6 [16]): 94.2% | activity at 1.11 µM (CYP2B6 [16]): 76.9% | activity at 3.33 µM (CYP2B6 [16]): 47% | activity at 10 µM (CYP2B6 [16]): 15.2% | IC50 (CYP3A [17]; pH 7.4): > 10000 nM | activity at 0.0137 µM (CYP3A [17]; pH 7.4, % of Control Enzyme Activity, 0.0137 μM, n=1): 96.7% | activity at 0.0412 µM (CYP3A [17]; pH 7.4, % of Control Enzyme Activity, 0.0412 μM, n=1): 97% | activity at 0.123 µM (CYP3A [17]; pH 7.4, % of Control Enzyme Activity, 0.123 μM, n=1): 94.5% | activity at 0.37 µM (CYP3A [17]; pH 7.4, % of Control Enzyme Activity, 0.370 μM, n=1): 95.1% | activity at 1.11 µM (CYP3A [17]; pH 7.4, % of Control Enzyme Activity, 1.11 μM, n=1): 95.9% | activity at 3.33 µM (CYP3A [17]; pH 7.4, % of Control Enzyme Activity, 3.33 μM, n=1): 88.2% | activity at 10 µM (CYP3A [17]; pH 7.4, % of Control Enzyme Activity, 10 μM, n=1): 61.6% | activity at 0.0137 µM (CYP2C19): 103% | activity at 0.0412 µM (CYP2C19): 110% | activity at 0.123 µM (CYP2C19): 101% | activity at 0.37 µM (CYP2C19): 102% | activity at 1.11 µM (CYP2C19): 92% | activity at 3.33 µM (CYP2C19): 70.8% | activity at 10 µM (CYP2C19): 40.7% | half-life (in vitro): 1.87 h | microsomal CLint (in vitro): 12.4 µL/min/mg | remaining at 0.25 h (in vitro): 101% | remaining at 0.5 h (in vitro): 80.5% | remaining at 1 h (in vitro): 68.9% | remaining at 1.5 h (in vitro): 69.5% | remaining at 2 h (in vitro): 41.6% | IC50 [18]: > 2000 nM | IC100 (range of IC100 values detected in the three cell lines) [19]: 0.25 to 1 µM | IC50 ([19]; read-out: IC50 (range over the three cell lines)): 32.3 to 63.4 nM | IC50 [20]: > 2000 nM
